pIC50: −log10 of the molar value.

One experiment has as its system Jurkat cells. The experiment can be described thus: Jurkat cell viability, resazurin (Alamar Blue) assay. The experiment is classed as cell-based. As to conditions: Homo sapiens; Jurkat cells, 22 h then resazurin 4 h; three experiments in duplicates; read-out: IC50. As to the method:
The compounds were tested for pharmacological activity. In each of the tests, each compound was tested at […] in duplicates. […] The percentage of response relative to the DMSO control was then calculated for the mean value of the duplicates of each test. The values of the three tests were finally averaged and the standard deviations calculated.
Jurkat cells (10'000 cells/well) were incubated in the presence of various concentrations of compounds, doxorubicin or staurosporine. Twenty-two hours later, cells were incubated with resazurin (20 μg/ml) for 4 hours and fluorescence was measured at 590 nm.
On the technique in general: Resazurin is reduced to fluorescent resorufin, in cell work by metabolically active cells.
Turning to `Cc1nccc2c1[nH]c1ccc(-c3cccc(N(C)C)c3)cc12` [Example C5, 6-(3-(N,N-dimethylamino)phenyl)-1-methyl-9H-pyrido[3,4-b]indole], the negative-log IC50 (pIC50) (commonly the negative decadic logarithm of the IC50, by convention in mol/L) is 4.94.

`Cc1nccc2c1[nH]c1ccc(-c3cncnc3)cc12` [Example C8, 6-(pyrimidin-5-yl)-1-methyl-9H-pyrido[3,4-b]indole]: the negative-log IC50 (pIC50) was 4.56. The same measure, in the same setting: in the case of `Cc1ccccc1-c1ccc2[nH]c3c(C)nccc3c2c1` [Example C9, 6-(2-methylphenyl)-1-methyl-9H-pyrido[3,4-b]indole] it was 4.38. Regarding `C=CCn1c2ccc(-c3ccc4c(c3)CCO4)cc2c2ccnc(C)c21` [Example C11], the negative logarithm of the IC50 (pIC50) was under 5.00. Turning to `Cc1nccc2c3cc(-c4ccc5c(c4)CCO5)ccc3n(Cc3ccccc3)c12` [Example C12], the negative logarithm of the IC50 (pIC50) is under 5.00. On the same count and under the same terms, then `CCCCCn1c2ccc(-c3ccc4c(c3)CCO4)cc2c2ccnc(C)c21` [Example C13], with under 5.00. Still for that read-out and setting: in the case of `Cc1nccc2c1[nH]c1ccc(-c3ccccc3F)cc12` [Example E4, 6-(2-fluorophenyl)-1-methyl-9H-pyrido[3,4-b]indole] it was 5.39.

For `Cc1nccc2c1[nH]c1ccc(-c3cccc(F)c3)cc12` [Example E5, 6-(3-fluorophenyl)-1-methyl-9H-pyrido[3,4-b]indole], the negative logarithm of the IC50 (pIC50) was 6.25. On the same count and under the same terms, then `Cc1cc(C)cc(-c2ccc3[nH]c4c(C)nccc4c3c2)c1` [Example E8, 6-(3,5-dimethylphenyl)-1-methyl-9H-pyrido[3,4-b]indole], with 6.89. Same read-out and setting: in the case of `Cc1nccc2c1[nH]c1ccc(-c3cccc(CN)c3)cc12` [Example E10, 6-(3-(aminomethyl)phenyl)-1-methyl-9H-pyrido[3,4-b]indole] it was 6.01. On the same count and under the same terms, then `CC(=O)NCc1cccc(-c2ccc3[nH]c4c(C)nccc4c3c2)c1` [Example E11, 6-(3-(acetamidomethyl)phenyl)-1-methyl-9H-pyrido[3,4-b]indole], with 7.47; and `Cc1nccc2c1[nH]c1ccc(-c3cccc(C(N)=O)c3)cc12` [Example E12, 6-(3-aminocarbonylphenyl)-1-methyl-9H-pyrido[3,4-b]indole], with 7.34; and `CC(=O)c1cccc(-c2ccc3[nH]c4c(C)nccc4c3c2)c1` [Example E13, 6-(3-acetylphenyl)-1-methyl-9H-pyrido[3,4-b]indole], with 5.69. Take `COC(=O)c1cccc(-c2ccc3[nH]c4c(C)nccc4c3c2)c1` [Example E14, 6-(3-methoxycarbonylphenyl)-1-methyl-9H-pyrido[3,4-b]indole]: the pIC50 was 5.14. For the molecule `CC(=O)OCc1cccc(-c2ccc3[nH]c4c(C)nccc4c3c2)c1` [Example E15, 6-(3-(acetoxymethyl)phenyl)-1-methyl-9H-pyrido[3,4-b]indole], the pIC50 is 7.47. The same measure, in the same setting: in the case of `CC(=O)OCc1cc(COC(C)=O)cc(-c2ccc3[nH]c4c(C)nccc4c3c2)c1` [Example E16, 6-(3,5-bis(acetoxymethyl)phenyl)-1-methyl-9H-pyrido[3,4-b]indole] it was 7.28; in that of `Cc1nccc2c1[nH]c1ccc(-c3cccc(O)c3)cc12` [Example E17, 6-(3-hydroxyphenyl)-1-methyl-9H-pyrido[3,4-b]indole], 6.71; in that of `Cc1nccc2c1[nH]c1ccc(-c3cccc(CO)c3)cc12` [Example E18, 6-(3-hydroxymethylphenyl)-1-methyl-9H-pyrido[3,4-b]indole], 7.34. On the same count and under the same terms, in the case of `Cc1nccc2c1[nH]c1ccc(-c3cccc(C(C)O)c3)cc12` (stereo not drawn) [Example E19, 6-(3-(1-hydroxyethyl)phenyl)-1-methyl-9H-pyrido[3,4-b]indole] it was 5.85. On the same count and under the same terms, in the case of `Cc1nccc2c1[nH]c1ccc(-c3ccc(C#N)cc3)cc12` [Example E22, 6-(4-cyanophenyl)-1-methyl-9H-pyrido[3,4-b]indole] it was 5.30; in that of `Cc1nccc2c1[nH]c1ccc(-c3cccc(CC#N)c3)cc12` [Example E23, 6-(3-cyanomethylphenyl)-1-methyl-9H-pyrido[3,4-b]indole], 7.19. As to `Cc1nccc2c1[nH]c1ccc(-c3cc(C#N)ccc3F)cc12` [Example E24, 6-(5-cyano-2-fluorophenyl)-1-methyl-9H-pyrido[3,4-b]indole], the pIC50 is 6.01. On the same count and under the same terms, in the case of `Cc1nccc2c1[nH]c1ccc(-c3ccc4[nH]ccc4c3)cc12` [Example E26, 6-(1H-indol-5-yl)-1-methyl-9H-pyrido[3,4-b]indole] it was 6.43; in that of `Cc1nccc2c1[nH]c1ccc(-c3cccc(Cc4nn[nH]n4)c3)cc12` [Example E27, 6-(((2H-tetrazol-5-yl)methyl)phenyl)-1-methyl-9H-pyrido[3,4-b]indole], 5.66; in that of `Cc1ccc(-c2ccc3[nH]c4c(C)nccc4c3c2)o1` [Example E28, 6-(5-methylfuran-2-yl)-1-methyl-9H-pyrido[3,4-b]indole], 6.89. On the same count and under the same terms, in the case of `Cc1nccc2c1[nH]c1ccc(-c3ccc4c(c3)OCO4)cc12` [Example E30, 6-(benzo[d][1,3]dioxol-5-yl)-1-methyl-9H-pyrido[3,4-b]indole] it was 6.31; in that of `Cc1nccc2c1[nH]c1ccc(-c3ccc(C=O)o3)cc12` [Example E31, 6-(5-formylfuran-2-yl)-1-methyl-9H-pyrido[3,4-b]indole], 5.64; in that of `Cc1nccc2c1[nH]c1ccc(-c3ccc(CO)o3)cc12` [Example E32, 6-(5-hydroxymethylfuran-2-yl)-1-methyl-9H-pyrido[3,4-b]indole], 5.44. The same measure, in the same setting: in the case of `Cc1nccc2c1[nH]c1ccc(-c3cccc(N)c3)cc12` [Example E33, 6-(3-aminophenyl)-1-methyl-9H-pyrido[3,4-b]indole] it was 7.02.

`Cc1nccc2c1[nH]c1ccc(-c3cccc(NC=O)c3)cc12` [Example E34, 6-(3-formamidophenyl)-1-methyl-9H-pyrido[3,4-b]indole]: the negative-log IC50 (pIC50) was 7.55.

As to `FC(F)(F)c1nccc2c1[nH]c1ccc(-c3ccc4c(c3)CCO4)cc12` [Example E36, 6-(2,3-dihydrobenzofuran-5-yl)-1-trifluoromethyl-9H-pyrido[3,4-b]indole], the pIC50 was 7.02.

On to `CCc1nccc2c1[nH]c1ccc(-c3ccc4c(c3)CCO4)cc12` [Example E37, 6-(2,3-dihydrobenzofuran-5-yl)-1-ethyl-9H-pyrido[3,4-b]indole], for which the negative-log IC50 (pIC50) is 8.40. Consider `CCCc1nccc2c1[nH]c1ccc(-c3ccc4c(c3)CCO4)cc12` [Example E38, 6-(2,3-dihydrobenzofuran-5-yl)-1-propyl-9H-pyrido[3,4-b]indole], for which the pIC50 was 6.64.

For `CC(C)c1nccc2c1[nH]c1ccc(-c3ccc4c(c3)CCO4)cc12` [Example E39, 6-(2,3-dihydrobenzofuran-5-yl)-1-isopropyl-9H-pyrido[3,4-b]indole], the pIC50 was 6.52.

In the case of `CCc1nccc2c1[nH]c1ccc(-c3cccc(COC)c3)cc12` [Example E40, 6-(3-(methoxymethyl)phenyl)-1-ethyl 9H-pyrido[3,4-b]indole], the pIC50 was 5.54. Take `CCNC(=O)NCc1cccc(-c2ccc3[nH]c4c(C)nccc4c3c2)c1` [Example E41]: the pIC50 is 5.90. The same measure, in the same setting: in the case of `Cc1nccc2c1[nH]c1ccc(-c3cccc(CN(C)C)c3)cc12` [Example E42, N,N-dimethyl-1-(3-(1-methyl-9H-pyrido[3,4-b]indol-6-yl)phenyl)methanamine] it was 6.07; in that of `CCc1nccc2c1[nH]c1ccc(-c3cccc(COCCOC)c3)cc12` [Example E43, 6-(3-((2-methoxyethoxy)methyl)phenyl)-1-ethyl 9H-pyrido[3,4-b]indole], 6.47.

On to `Cc1nccc2c1[nH]c1ccc(-c3cccc(CNS(C)(=O)=O)c3)cc12` [Example E45], for which the pIC50 is 7.28. The same measure, in the same setting: then `Cc1nccc2c1[nH]c1ccc(-c3cccc(S(N)(=O)=O)c3)cc12` [Example E46, 3-(1-methyl-9H-pyrido[3,4-b]indol-6-yl)benzenesulfonamide], with 6.59. The same measure, in the same setting: in the case of `Cc1nccc2c1[nH]c1ccc(-c3cccc(S(=O)(=O)NCCO)c3)cc12` [Example E47, N-(2-hydroxyethyl)-3-(1-methyl-9H-pyrido[3,4-b]indol-6-yl)benzenesulfonamide] it was 5.92.

The same experiment, now with this note: Jurkat cells, 22 h then resazurin 4 h; three experiments in duplicates.
Take `Cc1nccc2c1[nH]c1ccc(-c3ccc4ccccc4c3)cc12` [Example C1, 6-(naphthalen-2-yl)-1-methyl-9H-pyrido[3,4-b]indole]: the “IC50 (μM)” value is “not active”. For the molecule `Cc1nccc2c1[nH]c1ccc(-c3ccc(Cl)cc3)cc12` [Example C2, 6-(4-chlorophenyl)-1-methyl-9H-pyrido[3,4-b]indole], the “IC50 (μM)” value is “not active”. Regarding `Cc1nccc2c1[nH]c1ccc(-c3ccc(C(F)(F)F)cc3)cc12` [Example C3, 6-(4-(trifluoromethyl)phenyl)-1-methyl-9H-pyrido[3,4-b]indole], the “IC50 (μM)” value was “not active”. Same read-out and setting: then `COc1ccc(-c2ccc3[nH]c4c(C)nccc4c3c2)cc1` [Example C4, 6-(4-methoxyphenyl)-1-methyl-9H-pyrido[3,4-b]indole], with “not active”; and `Cc1nccc2c1[nH]c1ccc(-c3cccc(C(=O)O)c3)cc12` [Example C6, 6-(3-carboxyphenyl)-1-methyl-9H-pyrido[3,4-b]indole], with “not active”. As for `Cc1nccc2c1[nH]c1ccc(-c3cccc(CC(=O)O)c3)cc12` [Example C7, 6-(3-carboxymethylphenyl)-1-methyl-9H-pyrido[3,4-b]indole], the “IC50 (μM)” value is “not active”. Regarding `Cc1nccc2c1[nH]c1ccc(-c3ccsc3)cc12` [Example C10, 6-(thiophen-3-yl)-1-methyl-9H-pyrido[3,4-b]indole], the “IC50 (μM)” value is recorded as “not active”.

Source of the values: patent US20130274258A1, “CARBAZOLE AND CARBOLINE DERIVATIVES, AND PREPARATION AND THERAPEUTIC APPLICATIONS THEREOF” (PHILIP MORRIS PRODUCTS S.A., priority 2010, published 2013).
